Consider six compounds from US20260232812A1, “BIFUNCTIONAL MOLECULES FOR TARGETED PROTEIN DEGRADATION” (Amphista Therapeutics Limited, priority 2022, published 2026).

Structures are written as SMILES.

One may read the Dmax as the largest share of the target that was removed. Read a high Dmax as deep degradation.

T1 sequence (P51531 whole entry): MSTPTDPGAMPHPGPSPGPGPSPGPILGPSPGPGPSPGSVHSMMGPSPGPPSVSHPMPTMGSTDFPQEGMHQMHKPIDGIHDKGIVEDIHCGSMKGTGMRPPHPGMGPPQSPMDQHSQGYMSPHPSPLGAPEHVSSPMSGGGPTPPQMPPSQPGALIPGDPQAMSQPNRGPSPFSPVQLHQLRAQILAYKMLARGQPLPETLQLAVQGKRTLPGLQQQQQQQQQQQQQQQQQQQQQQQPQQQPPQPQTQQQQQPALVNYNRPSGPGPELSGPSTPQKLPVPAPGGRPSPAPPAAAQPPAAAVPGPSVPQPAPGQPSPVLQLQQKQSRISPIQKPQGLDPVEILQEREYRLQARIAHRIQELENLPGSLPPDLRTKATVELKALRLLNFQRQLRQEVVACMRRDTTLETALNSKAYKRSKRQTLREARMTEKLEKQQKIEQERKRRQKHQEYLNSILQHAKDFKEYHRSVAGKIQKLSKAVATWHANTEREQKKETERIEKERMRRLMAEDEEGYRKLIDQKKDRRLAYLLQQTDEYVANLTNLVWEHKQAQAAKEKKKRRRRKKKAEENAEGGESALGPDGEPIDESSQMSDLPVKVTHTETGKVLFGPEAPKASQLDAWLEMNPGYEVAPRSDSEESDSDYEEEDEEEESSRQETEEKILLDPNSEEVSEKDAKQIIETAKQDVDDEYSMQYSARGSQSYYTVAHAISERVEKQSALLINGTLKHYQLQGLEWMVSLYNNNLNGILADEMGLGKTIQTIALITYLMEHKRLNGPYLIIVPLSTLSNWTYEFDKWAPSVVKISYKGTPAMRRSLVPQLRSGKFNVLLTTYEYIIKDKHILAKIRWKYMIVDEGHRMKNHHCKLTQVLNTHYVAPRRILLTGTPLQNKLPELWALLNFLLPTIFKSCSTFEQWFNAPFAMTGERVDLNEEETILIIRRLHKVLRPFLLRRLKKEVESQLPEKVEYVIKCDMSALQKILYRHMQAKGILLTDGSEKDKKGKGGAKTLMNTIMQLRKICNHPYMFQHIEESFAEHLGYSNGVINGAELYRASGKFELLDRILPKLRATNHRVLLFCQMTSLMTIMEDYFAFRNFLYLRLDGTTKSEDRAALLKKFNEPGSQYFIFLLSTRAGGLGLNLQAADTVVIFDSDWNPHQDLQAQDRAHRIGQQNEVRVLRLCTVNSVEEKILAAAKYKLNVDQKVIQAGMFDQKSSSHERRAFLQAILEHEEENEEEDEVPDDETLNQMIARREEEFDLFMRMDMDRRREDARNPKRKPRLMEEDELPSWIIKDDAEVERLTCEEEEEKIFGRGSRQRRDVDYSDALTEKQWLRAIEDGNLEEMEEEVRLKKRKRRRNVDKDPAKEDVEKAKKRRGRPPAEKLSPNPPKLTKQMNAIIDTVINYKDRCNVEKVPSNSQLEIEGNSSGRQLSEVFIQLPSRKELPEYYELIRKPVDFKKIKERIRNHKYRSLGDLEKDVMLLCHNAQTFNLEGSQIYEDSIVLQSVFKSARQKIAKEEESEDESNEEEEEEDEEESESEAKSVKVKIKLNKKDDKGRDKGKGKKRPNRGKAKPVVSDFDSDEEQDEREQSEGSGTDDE

The assay has as its target T1, SMARCA2 (Homo sapiens, UniProt P51531).
T1 construct: a HiBiT tag knocked in at the 3′ end of SMARCA2; host or cells: HeLa SMARCA2 HiBiT knock-in cells
The experiment in a line: SMARCA2 degradation, HeLa SMARCA2 HiBiT cells (Assay Protocol 1). Type of assay: cell-based. The settings on record: 24 hours after compound addition. Here is the method:
Hela cells with a HiBiT tag knocked in at the 3′ end of SMARCA2 were purchased from Promega (Custom product) (1). HeLa SMARCA2 HiBiT transfected cells were treated with compounds at indicated concentrations using the FlexDrop IQ (Perkin Elmer). 24 hours after compound additions abundance of HiBiT tagged protein was quantified using NanoGlo HiBiT lytic detection system (Promega, N3050). Cell viability was measured using Cell Titre Glow cell viability assay (Promega, G9243). In each case luminescence was measured on a Pherastar platereader.
(In general: With HiBiT, luminescence reflects the tagged protein that the partner subunit can reach.)
`COc1ccc(C2CC(C(=O)N[C@@H]3CCCN(c4cc(-c5ccccc5O)nnc4N)C3)CN(C(=O)/C(C#N)=C/c3ccn(C)n3)C2)cc1` (stereo partly drawn) [SMARCA2i] yielded a Dmax of 50 to 65%.

In the case of `CC(C)C1CC(C(=O)N[C@@H]2CCCN(c3cc(-c4ccccc4O)nnc3N)C2)CN(C(=O)/C(C#N)=C/c2nccs2)C1` (stereo partly drawn) [SMARCA2g], the Dmax lay within 65 to 80%. `CC(C)(C)/C=C(\C#N)C(=O)N1C[C@@H](C(=O)N[C@@H]2CCCN(c3cc(-c4ccccc4O)nnc3N)C2)[C@H](C2CCCCC2)C1` [SMARCA2h]: the Dmax lay within 65 to 80%. The result for `CC(C)C1CC(C(=O)N[C@@H]2CCCN(c3cc(-c4ccccc4O)nnc3N)C2)CN(C(=O)/C(C#N)=C/C(C)(C)C)C1` (stereo partly drawn) [SMARCA2f] reads 50 to 65%; that for `CC(C)(C)/C=C(\C#N)C(=O)N1CCN(CC(=O)N[C@@H]2CCCN(c3cc(-c4ccccc4O)nnc3N)C2)CC1` [SMARCA2b], 50 to 65%; that for `N#C/C(=C\c1nccs1)C(=O)N1CCCC(C(=O)N[C@@H]2CCCN(c3cc(-c4ccccc4O)nnc3N)C2)C1` (stereo partly drawn) [SMARCA2l], 50 to 65%.
